Results published in US20260242478A1, “ANTIBODIES FOR TARGETING PSMA AND CD28 AND USES THEREOF” (Janux Therapeutics, Inc., priority 2023, published 2026).
One block for each sequence: values may come before it.

Tests used:
[1] = molecular target: anti-CD28 scFv harbored in Ab-15 binding to the CD28 antigen; experiment: Inhibition of Ab-15 binding to CD28 by peptides, competition ELISA; conditions: Table 20; fixed Ab-15 pre-incubated with 0-100 μM titrated peptide, CD28 antigen coated plates
Experimental: Ab-15 fixed at I nanomolar (nM) concentration was pre-incubated with 0-100 micromolar (μM) titrated peptides. After a short pre-incubation period, the mixture of titrated peptide with fixed Ab-15 were added to the CD28 antigen coated plates. After a short incubation on the plates, bound Ab-15 was detected with a standard horse radish peroxidase conjugated secondary antibody.

[2] = molecular target: Ab-15 (anti-CD28 scFv of SEQ ID NO: 9); experiment: Ab-15 (anti-CD28 scFv) binding to peptides, ELISA; parameters: species or system human; conditions: Table 20; Ab-15 binding to plate-captured biotinylated peptide or CD28-biotin
Experimental: Ab-15 diluted in buffer was then added to the peptide captured plates. Bound antibody was detected using a standard horse radish peroxidase conjugate secondary antibody.

[3] = tested on: PSMA Fab (SEQ ID NOs: 19, 20); experiment: Kinetic binding of peptides to PSMA Fab, BLI
Experimental: Kinetic binding of the peptides of Table 9 to PSMA Fab (SEQ ID NOs: 19, 20) was evaluated using biolayer interferometry (BLI). Briefly, biotinylated peptides were loaded onto a streptavidin coated Octet® V SAX biosensor, quenched in biocytin, and baselined in buffer. […] After a short association period, sensors were transferred into buffer and the dissociation of bound Ab-1 was measured. Association and dissociation signals were recorded in real time and analyzed using a 1:1 binding model within the instrument software. Analysis using a 1:1 binding model enabled the calculation of the on and off rate constant as well as affinity, Kn.

[4] = tested on: PSMA Fab (SEQ ID NOs: 19, 20); experiment: PSMA Fab binding to peptides, ELISA; conditions: for EC50: PSMA Fab binding to biotinylated peptide, ELISA
Experimental: Peptides of Table 9 were evaluated for their ability to bind to PSMA Fab in a standard enzyme linked immunosorbent assay (ELISA) format. […] PSMA Fab diluted in buffer was then added to the peptide captured plates. Bound antibody was detected using a standard horse radish peroxidase conjugate secondary antibody.

[5] = molecular target: anti-CD28 Fab (SEQ ID NOs: 696, 697); experiment: anti-CD28 Fab binding to peptides, ELISA; conditions: for EC50: anti-CD28 Fab
[6] = molecular target: anti-CD28 Fab (SEQ ID NOs: 696, 697) binding to CD28 antigen; experiment: Inhibition of anti-CD28 Fab binding to CD28 by peptides, competition ELISA (incl. alanine scanning); conditions: Table 25; anti-CD28 Fab fixed at 1 nM, 0-100 μM peptides
[7] = molecular target: anti-CD28 scFv (disulfide) (SEQ ID NO: 10) binding to CD28 antigen; experiment: Inhibition of anti-CD28 scFv (disulfide) binding to CD28 by peptides, competition ELISA; conditions: anti-CD28 scFv (disulfide) fixed at 0.3 nM, 0-100 μM peptides
[8] = molecular target: anti-CD28 scFv (disulfide) (SEQ ID NO: 10); experiment: anti-CD28 scFv (disulfide) binding to peptides, ELISA; conditions: Table 27
Experimental: Peptides were evaluated for their ability to bind to ant-CD28 Fab (SEQ ID NOs: 696.697) or anti-CD28 scFv (disulfide) (SEQ ID NO: 10) in a standard ELISA format as described above.

Sequence: ADWCPRERWVDCFF [Peptide-19]
- IC50 [1]: 4420 nM
- EC50 [2]: 32.5 nM

Sequence: CFYAEYYDQVYSFC [Peptide-18]
- IC50 [1]: 3250 nM
- EC50 [2]: 32.2 nM

Sequence: IAVLCQPNWMCAGF [Peptide-180]
- Off rate t1/2 ([3]; Table 38, 1:1 binding model): <1 min
- Off rate t1/2 ([3]; Table 39, 1:1 binding model): 0.75 min
- binding to the PSMA Fab [4]: strong binding
- EC50 ([4]; Table 38): 33 nM

Sequence: SCAAGASYAWPYCA [Peptide-106]
- IC50 ([7]; Table 29): > 100000 nM

Sequence: SCAAGASYAWPYCL [Peptide-92]
- EC50 [8]: > 1000 nM
- IC50 ([7]; Table 27): > 100000 nM
- binding to the anti-CD28 Fab [5]: strong binding
- EC50 ([5]; Table 24): 54 nM
- EC50 ([5]; Table 25): 18.9 nM

The next lines start with the values.

- EC50 ([5]; Table 25): > 1000 nM
- IC50 [6]: > 100000 nM
Sequence: LCAAGFTYPWPLCL [Peptide-155]

- EC50 ([5]; Table 25): > 1000 nM
- IC50 [6]: > 100000 nM
Sequence: LCKPGVPYKWPTCL [Peptide-156]

- Off rate t1/2 ([3]; Table 38, 1:1 binding model): <1 min
- Off rate t1/2 ([3]; Table 39, 1:1 binding model): 1.09 min
- binding to the PSMA Fab [4]: strong binding
- EC50 ([4]; Table 38): 5.9 nM
- EC50 ([4]; Table 39): 120 nM
Sequence: LMKWCTPRWMCAAE [Peptide-179]

- Off rate t1/2 ([3]; Table 39, 1:1 binding model): <1 min
Sequence: MCQWDELNYWMDCD [Peptide-202]

- Off rate t1/2 ([3]; Table 39, 1:1 binding model): <1 min
Sequence: MCQWDKINYWMDCD [Peptide-205]

- Off rate t1/2 ([3]; Table 39, 1:1 binding model): <1 min
Sequence: QCTWNEKTWWMECE [Peptide-204]

- Off rate t1/2 ([3]; Table 39, 1:1 binding model): <1 min
Sequence: SKLLCVPPWMCYHV [Peptide-194]

- IC50 ([7]; Table 29): > 100000 nM
Sequence: YCAGHAWQYANKCL [Peptide-113]
